Assay results as given in patent publication US20250268901A1, “CRYSTAL FORM OF AZETIDINE-SUBSTITUTED COMPOUND” (MEDSHINE DISCOVERY INC., priority 2020, published 2025).

Legend:
[1] = system: pancreatic cancer MIA-Paca2 cell; settings: subcutaneous xenograft tumor model of pancreatic cancer MIA-Paca2 cell; cited from earlier work
KRAS G12C = settings: cited from earlier work
NCI-H358 cells = test: Cell proliferation assay (CellTiter-Glo), NCI-H358; assay type: cell-based, Human
Experimental: (§1) The effect of the compound on cell proliferation was examined on NC-H358, MA-PA-CA-2, A375, SW1463, and A427 cells.
Medium for H358 cell line: 89% RPMI1640 medium+10% fetal bovine serum+1% P/S
(§2) • 1. The medium and pancreatin used in the process of cell passaging were pre-heated in a water bath at 37° C. • 2. The cells were rinsed with pancreatin and digested with pancreatin until the cells were detached. A culture solution was added, and the cells and the culture solution were well mixed to stop the digestion. • 3. The cells were pipetted into a 15 mL centrifuge tube, 0.01 mL of cell suspension was pipetted onto a count plate, and cells were counted. • 4. According to the cell densities shown in the table below, a proper amount of each type of cells was transferred to a 15 mL centrifuge tube and made up to a volume of 9 mL with a corresponding cell culture solution.
• 5. […]
(§3) • 1. On the day of compound treatment, the day-0 test plate was removed from the incubator, 50 µL of Cell Titer Glo was added, and the plate was centrifuged at 1000 rpm for 10 s, shaken at room temperature for 10 min, then centrifuged again at 1000 rpm for 10 s, and read on Envision. • 2. […] To each well of the 96-well plates, 50 µL of Cell Titer-Glo was added, and the plates were centrifuged at 1000 rpm for 10 s, shaken at room temperature for 10 min, then centrifuged again at 1000 rpm for 10 s, and read on Envision. • 3. […]

SW1463 cells = test: Cell proliferation assay (CellTiter-Glo), SW1463; assay type: cell-based, Human
Experimental: as §1
Medium for SW1463 cell line: 89% Leibovit2 sL-15 medium+10% fetal bovine serum+1% P/S
as §2, with “According to the cell densities shown in the table below, a proper amount of each type of cells was transferred to a 15 mL centrifuge tube and made up to a volume of 9 mL with a corresponding cell culture solution.” left out
as §3

A427 cells = test: Cell proliferation assay (CellTiter-Glo), A427; assay type: cell-based, Human
Experimental: as §1
Medium for A427 cell line: 89% EMEM medium+10% fetal bovine serum+1% P/S
as §2
• 5. […]
as §3

A375 cells = test: Cell proliferation assay (CellTiter-Glo), A375; assay type: cell-based, Human
Experimental: as §1
Medium for A375 cell line: 89% DMEM medium+10% fetal bovine serum+1% P/S
as §2
• 5. […]
as §3

MIA-PA-CA-2 cells = test: Cell proliferation assay (CellTiter-Glo), MIA-PA-CA-2; assay type: cell-based, Human
Experimental: as §1
Medium for MIA-PA-CA-2 cell line: 86.5% DMEM medium+10% fetal bovine serum+2.5% horse serum+1% P/S
as §2, with “According to the cell densities shown in the table below, a proper amount of each type of cells was transferred to a 15 mL centrifuge tube and made up to a volume of 9 mL with a corresponding cell culture solution.” left out
as §3

[2] = Pressure stability of crystal form (hydraulic press, XRPD); assay type: physicochemical
Experimental: The Hydraulic press experiment is carried out on an SYP-5BS manual press, and the pressure put on to the sample is about 350 MPa.
Crystal form C of the compound of formula (I) was added to a circular mold (6 mm in diameter) and pressurized to about 350 MPa. A small piece of the sheet-like sample was directly taken for XRPD analysis.

[3] = Solid stability of crystal form (XRPD and HPLC); assay type: physicochemical
Experimental: The purity and solubility of a sample are determined through a high performance liquid chromatograph Agilent 1260 HPLC.
To evaluate the solid stability of crystal form C of the compound of formula (I), crystal form C of the compound of formula (I) was subjected to stability testing under affecting factor conditions (high temperature, high humidity, and light), 60° C./75% RH conditions, and 40° C./75% RH conditions. Crystal form C was placed under a high-temperature condition (60° C., closed) and a high-humidity condition (92.5% RH, wrapped in a sealing film, with 5 small holes made) for 1 week and 2 weeks, placed in a closed container in visible light and ultraviolet light (a light-shielding control group was set at the same time, and the sample was wrapped in tinfoil) according to the ICH conditions (visible light illumination reached 1.2E+06 Lux hrs, and ultraviolet light illumination reached 200 W·hrs/m2), and meanwhile placed under 60° C./75% RH conditions (wrapped in a sealing film, with 5 small holes made) for 1 month and 2 months and under 40° C./75% RH conditions (wrapped in a sealing film, with 5 small holes made) for 1 month, 2 months, and 3 months. All the stability samples were tested for crystal form change by XRPD analysis and were analyzed by HPLC.

[4] = Light-shielding control group, simultaneously with visible + ultraviolet
[5] = Visible + ultraviolet (ICH conditions), 1.2E+06 Lux · hrs, 300 W · hrs/m^2

For `C=CC(=O)N1CCN(c2ncnc3c(F)c(-c4c(O)cccc4F)c(Cl)cc23)CC1` [ARS-1620], the tumor growth inhibition [1] is listed as “can effectively inhibit tumor growth” and the “cell antiproliferative activity at the cellular level” value (KRAS G12C) is listed as “nM level”.
In the case of `C=CC(=O)N1CCN(c2nc(N3CC(N(CC)CC)C3)nc3c(=O)n(-c4c(N)c(Cl)cc(Cl)c4F)c(C(F)(F)F)cc23)CC1` [Compound of formula (I)], the IC50 (NCI-H358 cells; Homo sapiens, NCI-H358, 120 h incubation, CellTiter-Glo) is reported as 13 ± 1.85 nM, the “inhibitory activity against proliferation” value (“inhibitory activity” for short) (NCI-H358 cells; human non-small cell lung cancer cell NCI-H358) is reported as “good inhibitory activity” and the IC50 (SW1463 cells; Homo sapiens, SW1463, 144 h incubation, CellTiter-Glo) is reported as 112 ± 32.7 nM. The “inhibitory activity” value (SW1463 cells; human rectal adenocarcinoma cell SW1463) was “good inhibitory activity”, the IC50 (A427 cells; Homo sapiens, A-427, A427, 72 h incubation, CellTiter-Glo) was greater than 6980 nM and the activity on cell (A427 cells; human lung cancer cell A427) was “weak activity”. For the same compound, the IC50 (A375 cells; Homo sapiens, A-375, A375, 72 h incubation, CellTiter-Glo) was 4640 ± 89.8 nM, the activity on cell (A375 cells; melanoma cell A375) was “weak activity” and the IC50 (MIA-PA-CA-2 cells; Homo sapiens, MIA PaCa-2, MIA-PA-CA-2, 72 h incubation, CellTiter-Glo) was 34 ± 7.03 nM. For the same compound, the “inhibitory activity” value (MIA-PA-CA-2 cells; pancreatic cancer cell MIA-PA-CA-2) was “good inhibitory activity”.
With `C=CC(=O)N1CCN(c2nc(N3CC(N(CC)CC)C3)nc3c(=O)n(-c4c(N)c(Cl)cc(Cl)c4F)c(C(F)(F)F)cc23)CC1` [crystal form C] the “pressure stability (conclusion)” value ([2]; about 350 MPa) was “good pressure stability”, the “crystal form change after being pressed (XRPD)” value ([2]; pressure of about 350 MPa) was “did not change” and the Crystal form change ([3]; 40° C./75% RH, 1 month) was “Unchanged”. For the same compound, the “Purity (%)” value ([3]; 40° C./75% RH, 1 month) was 98.00%, the Relative purity ([3]; 40° C./75% RH, 1 month) was 100.2% and the Crystal form change ([3]; 40° C./75% RH, 2 months) was “Unchanged”. The “Purity (%)” value ([3]; 40° C./75% RH, 2 months) was 97.92%, the Relative purity ([3]; 40° C./75% RH, 2 months) was 100.1% and the Crystal form change ([3]; 40° C./75% RH, 3 months) was “Unchanged”. For the same compound, the “Purity (%)” value ([3]; 40° C./75% RH, 3 months) was 98.02%, the Relative purity ([3]; 40° C./75% RH, 3 months) was 100.2% and the Crystal form change ([3]; 60° C., closed, 1 week) was “Unchanged”. For the same compound, the “Purity (%)” value ([3]; 60° C., closed, 1 week) was 97.99%, the Relative purity ([3]; 60° C., closed, 1 week) was 100.1% and the Crystal form change ([3]; 60° C., closed, 2 weeks) was “Unchanged”. The “Purity (%)” value ([3]; 60° C., closed, 2 weeks) was 97.98%, the Relative purity ([3]; 60° C., closed, 2 weeks) was 100.1% and the Crystal form change ([3]; 60° C./75% RH, 1 month) was “Unchanged”. For the same compound, the “Purity (%)” value ([3]; 60° C./75% RH, 1 month) was 97.92%, the Relative purity ([3]; 60° C./75% RH, 1 month) was 100.1% and the Crystal form change ([3]; 60° C./75% RH, 2 months) was “Unchanged”. For the same compound, the “Purity (%)” value ([3]; 60° C./75% RH, 2 months) was 97.98%, the Relative purity ([3]; 60° C./75% RH, 2 months) was 100.1% and the Crystal form change ([3]; 92.5% RH, 1 week) was “Unchanged”. The “Purity (%)” value ([3]; 92.5% RH, 1 week) was 98.03%, the Relative purity ([3]; 92.5% RH, 1 week) was 100.2% and the Crystal form change ([3]; 92.5% RH, 2 weeks) was “Unchanged”. The “Purity (%)” value ([3]; 92.5% RH, 2 weeks) was 98.00%, the Relative purity ([3]; 92.5% RH, 2 weeks) was 100.2% and the Crystal form change [3, 4] was “Unchanged”. The “Purity (%)” value [3, 4] was 98.00%, the Relative purity [3, 4] was 100.2% and the Crystal form change ([3]; Starting sample) was “Unchanged”. For the same compound, the “Purity (%)” value ([3]; Starting sample) was 97.85%, the Crystal form change [3, 5] was “Unchanged” and the “Purity (%)” value [3, 5] was 96.62%. The Relative purity [3, 5] was 98.7% and the “solid stability (conclusion)” value ([3]; high temperature, high humidity, light, 60° C./75% RH, 40° C./75% RH) was “good solid stability”.
